Data reported in patent publication US7132455B2, “Phthalamide derivatives” (Bayer Cropscience AG, priority 2002, dated 2006).

How the values were obtained:
[1] = system: larva of Cnaphalocrocis medinalis Guenee; assay: Test against larva of Cnaphalocrocis medinalis Guenee (systemic, root uptake by paddy rice); assay type: in vivo; conditions: 20 ppm concentration of effective component; rice root parts in diluted solution, foliage fed to second instar larvae; after 7 days; 25° C.
Description: Test Against Larva of Cnaphalocrocis medinalis Guenee Root parts of paddy rice (variety: […]) cultivated to 4 to 5 leaf stage were put in a brown bottle filled with the diluted aqueous solution of the prescribed concentration of the active compound prepared in the same manner as in the above-mentioned Biological Test Example 1. Three days after the treatment with the agent, 1⁄3 amount of rice plant was collected and their foliage part was cut in 4 to 5 cm length, which were put in a dish with 9 cm diameter with a sheet of filter paper wetted with 2 mL of water. Five larvae of Cnaphalocrocis medinalis Guenee at the second instar were put in the dish which was placed in a room at constant temperature of 25° C. After 2 and 4 days, each rest (each 1⁄3 amount) of foliage parts of rice plant were cut in the same manner and added to the dish. After 7 days the number of dead larvae was counted and the rate of death was calculated. In this test the results of 2 dishes at 1 section were averaged.

[2] = system: larva of Spodoptera litura; assay: Test against larva of Spodoptera litura (leaf dip, sweet potato leaves); assay type: in vivo; conditions: 20 ppm concentration of effective component; third instar larvae on treated sweet potato leaves; after 7 days; 25° C.
Protocol: Test against larva of Spodoptera litura
In order to make an appropriate formulation of an active compound 1 part by weight of the active compound was mixed with the above-mentioned amount of solvent containing the above-mentioned amount of emulsifier and the mixture was diluted with water to a prescribed concentration.
Leaves of sweet potato were soaked in the test agent diluted to a prescribed concentration with water, dried in the air and put in a dish of 9 cm diameter. 10 larvae of Spodoptera litura at the third instar were placed on the leaves and kept in a room at constant temperature of 25° C. After 2 and 4 days further leaves of sweet potato were added and after 7 days the number of dead larvae was counted and the rate of death was calculated.
In this test the results of 2 dishes at 1 section were averaged.

Structure (SMILES)	rate of death [1]	rate of death [2]
CSCC(C)NC(=O)c1c(OS(C)(=O)=O)cccc1C(=O)Nc1ccc(C(F)(C(F)(F)F)C(F)(F)F)cc1 (centres unmarked) [compound 5, N^1-(4-heptafluoroisopropylphenyl)-N^2-[1-methyl-2-(methylthio)ethyl]-3-methanesulfonyloxyphthalamide]	100%	100%
CSCC(C)NC(=O)c1c(OS(C)(=O)=O)cccc1C(=O)Nc1ccc(OC(F)(F)F)cc1C (centres unmarked) [compound 6, N^2-[1-methyl-2-(methylthio)ethyl]-N^1-(4-trifluoromethoxy-2-methylphenyl)-3-methanesulfonyloxyphthalamide]		100%
CSCC(C)NC(=O)c1c(OS(C)(=O)=O)cccc1C(=O)Nc1ccc(C(F)(C(F)(F)F)C(F)(F)F)cc1C (centres unmarked) [compound 7, N^1-(4-heptafluoroisopropyl-2-methylphenyl)-N^2-[1-methyl-2-(methylthio)-ethyl]-3-methanesulfonyloxyphthalamide]	100%	100%
CSCC(C)(C)NC(=O)c1c(OS(C)(=O)=O)cccc1C(=O)Nc1ccc(C(F)(C(F)(F)F)C(F)(F)F)cc1C [compound 10, N^2-[1,1-dimethyl-2-(methylthio)ethyl]-N^1-(4-heptafluoroisopropyl-2-methylphenyl)-3-methanesulfonyloxyphthalamide]	100%	100%
Cc1cc(C(F)(C(F)(F)F)C(F)(F)F)ccc1NC(=O)c1cccc(OS(C)(=O)=O)c1C(=O)NC(C)(C)C[S+](C)[O-] (centres unmarked) [compound 11, N^2-[1,1-dimethyl-2-(methylsulfinyl)ethyl]-N^1-(4-heptafluoroisopropyl-2-methylphenyl)-3-methanesulfonyloxyphthalamide]	100%	100%
Cc1cc(C(F)(C(F)(F)F)C(F)(F)F)ccc1NC(=O)c1cccc(OS(C)(=O)=O)c1C(=O)NC(C)(C)CS(C)(=O)=O [compound 12, N^2-[1,1-dimethyl-2-(methylsulfonyl)ethyl]-N^1-(4-heptafluoroisopropyl-2-methylphenyl)-3-methanesulfonyloxyphthalamide]	100%	100%
CCS(=O)(=O)Oc1cccc(C(=O)Nc2ccc(C(F)(C(F)(F)F)C(F)(F)F)cc2C)c1C(=O)NC(C)CSC (centres unmarked) [compound 14, N^1-(4-heptafluoroisopropyl-2-methylphenyl)-N^2-[1-methyl-2-(methylthio)ethyl]-3-ethanesulfonyloxyphthalamide]		100%
CCS(=O)(=O)Oc1cccc(C(=O)Nc2ccc(C(F)(C(F)(F)F)C(F)(F)F)cc2C)c1C(=O)NC(C)(C)CSC [compound 17, N^2-[1,1-dimethyl-2-(methylthio)ethyl]-N^1-(4-heptafluoroisopropyl-2-methylphenyl)-3-ethanesulfonyloxyphthalamide]		100%
CSCC(C)NC(=O)c1c(OS(=O)(=O)C(F)(F)F)cccc1C(=O)Nc1ccc(C(F)(C(F)(F)F)C(F)(F)F)cc1C (centres unmarked) [compound 21, N^1-(4-heptafluoroisopropyl-2-methylphenyl)-N^2-[1-methyl-2-(methylthio)ethyl]-3-trifluoromethanesulfonyloxyphthalamide]		100%
CSCC(C)(C)NC(=O)c1c(OS(C)(=O)=O)cccc1C(=O)Nc1ccc(Cl)c(Cl)c1Cl [compound 24, N^2-[1,1-dimethyl-2-(methylthio)ethyl]-N^1-(2,3,4-trichlorophenyl)-3-methanesulfonyloxyphthalamide]		100%
Cc1cc(C(F)(C(F)(F)F)C(F)(F)F)ccc1NC(=O)c1cccc(OS(C)(=O)=O)c1C(=O)NC(C)C [compound no. 1, N^1(4-heptafluoroisopropyl-2-methylphenyl)-N-2-isopropyl-3-methanesulfonyloxyphthalamide]	100%	100%
